Here are results for 27 compounds from patent US6437138B1, “3-pyridyloxymethyl heterocyclic ether compounds useful in controlling chemical synaptic transmission” (priority 1996, dated 2002).

For data set [1], the target named is neuronal nicotinic cholinergic channel receptors (Rattus norvegicus, UniProt P09483+P12390). The conditions noted are these: read-out: Binding Ki. The protocol:
A. Protocol For Determination of Nicotinic Cholinergic Channel Receptor Binding Potencies of Ligands
Binding of [^3H]-cytisine ([^3H]-CYT) to nicotinic receptors was accomplished using crude synaptic membrane preparations from whole rat brain (Pabreza et al., Molecular Pharmacol, 1990, 39:9). Washed membranes were stored at −80° C. prior to use. Frozen aliquots were slowly thawed and resuspended in 20 volumes of buffer (containing: 120 mM NaCl, 5 mM KCl, 2 mM MgCl2, 2 mM CaCl2 and 50 mM Tris-Cl, pH 7.4 @ 4° C.). After centrifuging at 20,000×g for 15 minutes, the pellets were resuspended in 30 volumes of buffer. Homogenate (containing 125-150 μg protein) was added to triplicate tubes containing concentrations of test compound and [^3H]-CYT (1.25 nM) in a final volume of 500 μL. Samples were incubated for 60 minutes at 4° C., then rapidly filtered through Whatman GF/B filters presoaked in 0.5% polyethyleneimine using 3×4 mL of ice-cold buffer. The filters are counted in 4 mL of Ecolume® (ICN). Nonspecific binding was determined in the presence of […] (−)-nicotine and values were expressed as a percentage of total binding.

In data set [2] the target is neuronal nicotinic cholinergic channels in IMR-32 cells (Homo sapiens, UniProt P30926+P32297). Description: 86Rb+ efflux in IMR-32 cells (activation, or inhibition of efflux elicited by (S)-nicotine). Type of data set: cell-based. The conditions noted are these: for inhibition at 1 µM / Emax / inhibition at 10 µM: IMR-32; for Emax: read-out: IMR-32 maximal response; for inhibition at 10 µM: single dose 10 μM. The text has this: For the purpose of directly evaluating the ability of test compounds to functionally activate or inhibit certain subtypes of neuronal nicotinic cholinergic channels, an assay to determine ^86Rb^+Efflux in IMR-32 cells was employed (Protocol B below).
B. Protocols for the Determination of Functional Effects of Cholinerzic Channel Receptor Ligands on Synaptic Transmission
Cells of the IMR-32 human neuroblastoma clonal cell line (ATCC, Rockville, Md.) were maintained in a log phase of growth according to established procedures (Lukas, 1993). Experimental cells were seeded at a density of 500,000 cells/ml into a 24-well tissue culture dish. Plated cells were allowed to proliferate for at least 48 hours before loading with 2 μCi/ml of ^86Rb^+ (35 Ci/mmol) overnight at 37° C. The ^86Rb^+ efflux assays were performed according to previously published protocols (Lukas, R. J., J. Pharmacol. Exp. Ther., 265: 294-302, 1993) except serum-free Dulbecco's Modified Eagle's Medium was used during the ^86Rb^+ loading, rinsing, and agonist-induced efflux steps.
EC50 data and maximal responses (reported as percent relative to the response elicited by 100 μM (S)-nicotine) are shown for selected compounds of the invention. The inhibition data (given for a larger number of compounds) reflect inhibition of the efflux elicited by 100 μM (S)-nicotine for either a single dose (% inhibition at 1 μM or at 10 μM) or over a range of doses (IC50 of inhibition). […] This finding is in agreement with the results of others who have linked dopamine release, which is dependent upon the ion flux in synaptic transmission, to binding at nicotinic receptors (cf., for example, Lippiello and Caldwell, U.S. Pat. No. 5,242,935, issued Sep. 7, 1993; Caldwell and Lippiello, U.S. Pat. No. 5,248,690, issued Sep. 28, 1993; and Wonnacott et al., Prog. Brain Res., 79: 157-163 (1989)).

Setting [3] is: displacement of [3H]-cytisine (1.25 nM), whole rat brain membranes, Ki from IC50 by Cheng and Prusoff correction.
Setting [4] is: 86Rb+ efflux, percent relative to the response elicited by 100 μM (S)-nicotine.
The mark [5] stands for this setting: inhibition of the efflux elicited by 100 μM (S)-nicotine, single dose 1 μM.
The mark [6] stands for this setting: inhibition of the efflux elicited by 100 μM (S)-nicotine.

Where a name gives a salt, the structure may show the parent alone. Read-outs that look alike come from different tables or passages of the source. Where only a bound is given, the exact number is not on record here.

neuronal nicotinic cholinergic channel receptors, sequence (P09483 31-630): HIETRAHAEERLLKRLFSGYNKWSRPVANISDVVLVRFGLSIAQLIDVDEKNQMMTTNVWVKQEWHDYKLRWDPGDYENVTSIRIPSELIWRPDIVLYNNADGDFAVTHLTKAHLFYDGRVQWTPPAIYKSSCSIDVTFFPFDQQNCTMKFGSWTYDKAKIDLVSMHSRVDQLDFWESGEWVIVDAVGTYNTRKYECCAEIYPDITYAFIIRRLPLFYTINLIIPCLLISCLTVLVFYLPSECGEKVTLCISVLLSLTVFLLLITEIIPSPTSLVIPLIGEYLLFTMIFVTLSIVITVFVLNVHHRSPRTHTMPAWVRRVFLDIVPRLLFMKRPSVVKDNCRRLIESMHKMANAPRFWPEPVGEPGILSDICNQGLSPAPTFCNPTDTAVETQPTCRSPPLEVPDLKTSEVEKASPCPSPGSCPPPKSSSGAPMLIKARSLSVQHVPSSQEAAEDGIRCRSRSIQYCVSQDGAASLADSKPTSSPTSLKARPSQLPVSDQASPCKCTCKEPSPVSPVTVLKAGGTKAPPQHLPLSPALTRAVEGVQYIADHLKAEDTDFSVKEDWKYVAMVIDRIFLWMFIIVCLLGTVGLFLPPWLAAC
neuronal nicotinic cholinergic channel receptors, sequence (P12390 25-500): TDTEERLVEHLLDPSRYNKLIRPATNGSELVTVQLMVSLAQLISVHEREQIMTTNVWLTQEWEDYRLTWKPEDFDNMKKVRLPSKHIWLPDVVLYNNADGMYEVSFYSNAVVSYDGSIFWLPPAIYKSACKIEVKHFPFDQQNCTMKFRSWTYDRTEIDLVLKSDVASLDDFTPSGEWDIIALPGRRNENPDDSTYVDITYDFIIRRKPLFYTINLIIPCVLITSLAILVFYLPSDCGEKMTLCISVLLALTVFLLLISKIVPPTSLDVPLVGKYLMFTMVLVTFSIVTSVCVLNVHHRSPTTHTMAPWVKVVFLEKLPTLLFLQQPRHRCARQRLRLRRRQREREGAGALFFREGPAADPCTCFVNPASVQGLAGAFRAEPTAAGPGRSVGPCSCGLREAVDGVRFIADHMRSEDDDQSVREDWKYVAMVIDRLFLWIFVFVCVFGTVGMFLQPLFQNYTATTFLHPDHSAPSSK

For “5-(5,5-Dimethyl-1,3-hexadienyl)-6-chloro-3-(2-(R)-pyrrolidinylmethoxy)pyridine Citric Acid Salt [Example 55]”, in data set [1] (setting [3]), the Ki came out at 0.0046 µM. The compound further had an EC50 in data set [2] (86Rb+ efflux, activation) above 10000 µM. In data set [2] (setting [4]), this compound registered an IMR-32 maximal response of 24.5%.
For “5-Hexenyl-3-(1-methyl-2-(S)-pyrrolidinylmethoxy)pyridine Dihydrochloride [Example 12]”, the Ki in data set [1] (setting [3]) came out at 0.00032 µM. In addition, the “% Inhibition @ 1 μM” value in data set [2] (setting [5]) was 25%.
As for `CN1CCC[C@H]1COc1cncc(-c2cccc([N+](=O)[O-])c2)c1` [Example 1, 5-(3-Nitrophenyl)-3-(1-methyl-2-(S)-pyrrolidinylmethoxy)pyridine Dihydrochloride], the Ki in data set [1] (setting [3]) came out at 0.00046 µM. Also, testing at 1 µM in data set [2] (setting [5]) gave an inhibition of 13%.
As for `CN1CCC[C@H]1COc1cncc(-c2cccnc2)c1.Cl.Cl` [Example 7, 5-(3-Pyridyl)-3-(1-methyl-2-(S)-pyrrolidinylmethoxy)pyridine Dihydrochloride], the melting point was 155 to 160 °C. Besides, the Ki in data set [1] (setting [3]) stood at 0.00027 µM.
Regarding `Cl.Cl.Clc1ncc(OC[C@@H]2CCCN2)cc1Br` [Example 23, 5-Bromo-6-chloro-3-(2-(S)-pyrrolidinylmethoxy)pyridine Dihydrochloride], the melting point was in the range of 264 to 268 °C. At 1 µM the inhibition in data set [2] (setting [5]) was 27%.
For `CN1CCC[C@H]1COc1cnc(Cl)c(Br)c1.Cl.Cl` [Example 24, 5-Bromo-6-chloro-3-(1-methyl-2-(S)-pyrrolidinylmethoxy)pyridine Dihydrochloride], the melting point fell in the range of 189 to 191 °C. In data set [2] (setting [5]), this compound showed an inhibition at 1 µM of 17%.
As to `CN1CCC[C@H]1COc1cncc(-c2cncnc2)c1.Cl.Cl` [Example 25, 5-(5-Pyrimidinyl)-3-(1-methyl-2-(S)-pyrrolidinylmethoxy)pyridine Dihydrochloride], the melting point was 205 to 220 °C. Besides, in data set [2] (setting [4]), the Emax came to 4.5%.
For `CN1CCC[C@H]1COc1cnc(Cl)c(-c2ccccc2)c1.Cl.Cl` [Example 26, 5-Phenyl-6-chloro-3-(1-methyl-2-(S)-pyrrolidinylmethoxy)pyridine Dihydrochloride], the melting point was in the range of 180 to 183 °C. This compound also yielded an inhibition at 1 µM in data set [2] (setting [5]) of 47%.
`CN1CCC[C@H]1COc1cncc(C=CC=CC(C)(C)C)c1.Cl.Cl` [Example 30, 5-(5,5-Dimethyl-1,3-hexadienyl)-3-(1-methyl-2-(S)-pyrrolidinylmethoxy)pyridine Dihydrochloride] came in with a melting point of 148 to 150 °C. For the same compound, the inhibition at 1 µM in data set [2] (setting [5]) stood at 21%. This compound also gave an inhibition at 10 µM in data set [2] (setting [6]) of 90%.
In turn, `Cl.Cl.Clc1ncc(OC[C@@H]2CCCN2)cc1C=Cc1ccncc1` [Example 33, 5-(2-(4-Pyridinyl)ethenyl)-6-chloro-3-(2-(S)-pyrrolidinylmethoxy)pyridine Dihydrochloride] gave a melting point of 235 to 240 °C. For the same compound, the Emax in data set [2] (setting [4]) is 47%.
As to `Cc1ccc(C#Cc2cncc(OC[C@@H]3CCCN3C)c2)cc1.Cl.Cl` [Example 48, 5-(2-(4-Methylphenyl)ethynyl)-3-(1-methyl-2-(S)-pyrrolidinylmethoxy)pyridine Dihydrochloride], the melting point lay in the range of 197 to 199 °C. In data set [2] (setting [5]), 1 µM produced 40% inhibition.
Take `Cl.Cl.c1ccc(-c2cncc(OC[C@@H]3CCCN3)c2)cc1` [Example 51, 5-Phenyl-3-(2-(S)-pyrrolidinylmethoxy)pyridine Dihydrochloride]: the melting point lay in the range of 134 to 136 °C. Besides, in data set [2] (setting [5]), the inhibition at 1 µM was determined as 42%.
The compound `Cl.Cl.c1ccc(-c2cncc(OC[C@H]3CCCN3)c2)cc1` [Example 52, 5-Phenyl-3-(2-(R)-pyrrolidinylmethoxy)pyridine Dihydrochloride] yielded a melting point of 129 to 131 °C. The compound further yielded an inhibition at 1 µM in data set [2] (setting [5]) of 22%. The compound also registered an inhibition at 10 µM in data set [2] (setting [6]) of 88%.
`CN1CCC[C@@H]1COc1cncc(-c2ccccc2)c1.Cl.Cl` [Example 53, 5-Phenyl-3-(1-methyl-2-(R)-pyrrolidinylmethoxy)pyridine Dihydrochloride] returned a melting point of 89 to 90 °C. The compound also showed an inhibition at 1 µM in data set [2] (setting [5]) of 35%. Moreover, in data set [2] (setting [6]), 10 µM produced 100% inhibition.
`CN1CC[C@H]1COc1cncc(-c2ccccc2)c1.Cl.Cl` [Example 57, 5-Phenyl-3-(1-methyl-2-(S)-azetidinylmethoxy)pyridine Dihydrochloride] gave a melting point of 120 to 122 °C. In addition, the inhibition at 1 µM in data set [2] (setting [5]) is 21%.
`Cl.Cl.Clc1ncc(OC[C@@H]2CCCN2)cc1-c1ccccc1` [Example 84, 5-Phenyl-6-chloro-3-(2-(S)-pyrrolidinylmethoxy)pyridine Dihydrochloride] displayed a melting point of 75 to 80 °C. The Emax in data set [2] (setting [4]) came out at 37%.
For `Cl.Cl.Cl.c1cc(CCc2cncc(OC[C@H]3CCCN3)c2)ccn1` [Example 87, 5-(2-(4-Pyridinyl)ethyl)-3-(2-(R)-pyrrolidinylmethoxy)pyridine Trihydrochloride] the same measures were 178 to 180 °C and 40%.
`CN1CCC[C@H]1COc1cncc(-c2ccccc2)c1.Cl.Cl` [Example 90, 5-Phenyl-3-(1-methyl-2-(S)-pyrrolidinylmethoxy)pyridine Dihydrochloride] registered a melting point of 88 to 90 °C. For the same compound, the Ki in data set [1] (setting [3]) turned out to be 0.000111 µM.
For the compound `CN1CC[C@@H]1COc1cncc(-c2ccsc2)c1` [Example 91, 5-(3-Thienyl)-3-(1-methyl-2-(R)-azetdinylmethoxy)pyridine Dihydrochloride], in data set [1], the Ki is 0.00184 µM.
With `c1csc(-c2cncc(OC[C@@H]3CCN3)c2)c1` [Example 154, 3-(2-(S)-Azetidinylmethoxy)-5-(2-thienyl)pyridine Dihydrochloride], the Emax in data set [2] (setting [4]) was determined as 1.5%.
Consider `C=Cc1cc(OC[C@@H]2CCN2)cnc1Cl.Cl.Cl` [Example 165, 3-(2-(S)-Azetidinylmethoxy)-6-chloro-5-ethenylpyridine Dihydrochloride], for which the melting point is 121 °C (dec.). In addition, in data set [2] (setting [4]), the Emax turned out to be 127%.
On to `CN1CCC[C@@H]1COc1cnc(Cl)c(-c2cncnc2)c1` [Example 180, 6-Chloro-3-(1-methyl-2-(R)-pyrrolidinylmethoxy)-5-pyrimidinylpyridine Hydrochloride], for which the inhibition constant Ki in data set [1] (setting [3]) was 0.0048 µM.
Consider `C=CCc1cncc(OC[C@@H]2CCN2)c1` [Example 181, 5-Allyl-3-(2-(S)-azetidinylmethoxy)pyridine Hydrochloride], for which the Emax in data set [2] (setting [4]) is 82%.
Turning to `C=CCc1cc(OC[C@@H]2CCCN2)cnc1Cl` [Example 183, 5-Allyl-6-chloro-3-(2-(S)-pyrrolidinylmethoxy)pyridine Hydrochloride], the Emax in data set [2] (setting [4]) was 110%.
For `C=Cc1cc(OC[C@@H]2CCCN2)cnc1Cl.Cl` [Example 191, 6-Chloro-5-ethenyl-3-(2-(S)-pyrrolidinylmethoxy)pyridine Hydrochloride], the melting point was in the range of 195 to 197 °C. The Emax in data set [2] (setting [4]) was 106%.
For `C=Cc1cc(OC[C@@H]2CCCN2)cnc1C=C.Cl` [Example 193, 5,6-Diethenyl-3-(2-(S)-pyrrolidinylmethoxy)pyridine Hydrochloride], the melting point lay within 186 to 188 °C. The Emax in data set [2] (setting [4]) is 9.5%.
In the case of `CC(=O)NCc1cc(OC[C@@H]2CCN2)cnc1Cl` [Example 206, 5-Acetamidomethyl-3-(2-(S)-azetidinylmethoxy)-6-chloropyridine Dihydrochloride], the Emax in data set [2] (setting [4]) came to 11%.
